Where two headings read alike, the source gives them in different places. One block for each molecule: values may come before it.
Columns and labels:
PLK1 kinase domain = target: T1, PLK1 kinase domain (Homo sapiens, UniProt P53350); experiment: Assay for Inhibition of PLK1 (SPA, 33P-ATP, His-tagged PLK kinase domain); format: biochemical; details: 2 nM PLK1 kinase domain, 1 μM ATP, 1.25 hrs at 22° C.; for IC50: read-out: Average pIC50 PLK Enzyme Inhibition (converted)
T1 construct: made in house; host or cells: baculovirus infected T. ni cells
T1 sequence (P53350 21-346): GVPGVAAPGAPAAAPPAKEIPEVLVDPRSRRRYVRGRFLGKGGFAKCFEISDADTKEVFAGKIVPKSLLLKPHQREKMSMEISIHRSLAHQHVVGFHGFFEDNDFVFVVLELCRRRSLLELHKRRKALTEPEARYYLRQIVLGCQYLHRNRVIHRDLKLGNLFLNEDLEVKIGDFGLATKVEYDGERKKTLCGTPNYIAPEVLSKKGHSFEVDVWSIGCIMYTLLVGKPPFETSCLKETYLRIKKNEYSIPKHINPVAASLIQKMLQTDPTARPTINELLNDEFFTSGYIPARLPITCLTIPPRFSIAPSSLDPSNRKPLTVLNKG
Procedure: I. Assay for Inhibition of PLK1
A. Preparation of 6× N-terminal His-tagged PLK kinase domain 6× N-terminal His-tagged PLK kinase domain (amino acids 21-346 preceded by MKKGHHHHHHD (SEQ ID:NO. 1) may be prepared from baculovirus infected T. ni cells under polyhedrin promoter control. All subsequent procedures are performed at 4° C. Cells are lysed in 25 mM HEPES, 200 mM NaCl, 25 mM imidazole; pH 8.0. The homogenate is centrifuged at 14K rpm in a SLA-1500 rotor for 40 min and the supernatant filtered through a 1.2 micron filter. The supernatant is loaded onto a Nickel chelating Sepharose (Amersham Pharmacia) column and washed with 25 mM HEPES, 500 mM NaCl, 25 mM imidazole; pH 8.0. The column is then washed with a 16.6% B step where buffer B is 25 mM HEPES, 500 mM NaCl, 300 mM imidazole; pH 8.0. Protein is eluted using a 10-column volume linear gradient from 16.6% B to 100% B. Fractions were pooled using absorbance at 280 nm. PLK is concentrated using a 10 kDa molecular weight cutoff membrane and then loaded onto a Superdex 75 gel filtration (Amersham Pharmacia) column equilibrated in 25 mM HEPES, 1 mM DTT, 500 mM NaCl; pH 8.0. Protein was pooled by absorbance at 280 nm and then quality controlled using mass spectrometry and SDS-PAGE. PLK was aliquoted and stored at −80° C.
B. Enzyme activity +/− inhibitors was determined as follows: Compounds are added to the plate (1 μl in 100% DMSO). DMSO (5% final) and EDTA (62.5 mM final in 20 μL reaction) are used as controls. Reaction Mix is prepared as follows at 22° C.: • 25 mM HEPES, pH 7.2 • 15 mM MgCl2 • 1 μM ATP • 0.05 μCi/well ^33P-γ ATP (10 Ci/mMol) • 1 μM substrate peptide (Biotin-Ahx-SFNDTLDFD) SEQ ID:No. 2. • 0.15 mg/ml BSA • 1 mM DTT • 2 nM PLK1 kinase domain (added last)
Reaction Mix (20 μl) is added per well to each well immediately upon addition of enzyme and incubated 1.25 hrs. at 22° C. The enzymatic reactions are stopped with 50 μl of SPA bead/EDTA mix (50 mM EDTA, 4.0 mg/ml Streptavidin-coated SPA beads in Standard Dulbecco's PBS (without Mg^2+ and Ca^2+), 50 μM ATP). Plates are sealed with clear plastic seals, spun at 500×g for 1 min. or settled overnight, and plates counted in Packard TopCount for 30 seconds/well.
In Table 1, +=pIC50<5; ++=pIC50 5-7; +++=pIC50>7.

[1] = system: H460 lung tumor cell line; experiment: Methylene Blue Growth Inhibition Assay, H460; format: cell-based, human; details: H460, 3 days, read-out: MeB Cell Line IC50
Procedure: (§1) II. Methylene Blue Growth Inhibition Assay
(§2) Normal Human foreskin fibroblasts (HFF) and human colon (HCT116, RKO), lung (H460), prostate (PC3), and breast tumor (MCF7) cell lines are cultured in high glucose DMEM (Life Technologies) containing 10% fetal bovine serum (FBS) at 37° C. in a humidified 10% CO2, 90% air incubator. Cells are harvested using trypsin/EDTA, counted using a haemocytometer, and plated in 100 μl of the appropriate media, at the following densities, in a 96-well tissue culture plate (Falcon 3075): HFF 5,000 cells/well, HCT116 3,000 cells/well, RKO 2,500 cells/well, H460 2,000 cells/well, PC3 8,000 cells/well, MCF7 4,000 cells/well. The next day, compounds are diluted in DMEM containing 100 μg/ml gentamicin, at twice the final required concentration, from 10 mM stock solutions in DMSO. 100 μl/well of these dilutions are added to the 100 μl of media currently on the cell plates. Medium containing 0.6% DMSO is added to control wells. Compounds diluted in DMEM are added to all cell lines. The final concentration of DMSO in all wells is 0.3%. Cells are incubated at 37° C., 10% CO2 for 3 days. Medium is removed by aspiration. Cell biomass is estimated by staining cells with 80 μl per well methylene blue (Sigma M9140, 0.5% in 50:50 ethanol:water), and incubation at room temperature for at least 30 minutes. Stain is removed, and the plates rinsed by immersion in water, and air-dried. To release stain from the cells 100 μl of solubilization solution is added (1% N-lauroyl sarcosine, Sodium salt, Sigma L5125, in PBS), and plates are left at room temperature for about 30 minutes. Optical density at 620 nm is measured on a microplate reader. Percent inhibition of cell growth is calculated relative to vehicle treated control wells. Concentration of compound that inhibits 50% of cell growth (IC50) is interpolated using nonlinear regression (Levenberg-Marquardt) and the equation, y=Vmax*(1−(x/(K+x)))+Y2, where Y2=0 and “K” is equal to the IC50.
(§3) In Table 1, +=10−>30 μM; ++=1-10 μM: +++=<1 μM.

[2] = system: HCT116 colon tumor cell line; experiment: Methylene Blue Growth Inhibition Assay, HCT116; format: cell-based, human; details: HCT116, 3 days, read-out: MeB Cell Line IC50
Procedure: as §1, §2, §3

[3] = system: Normal Human foreskin fibroblasts (HFF); experiment: Methylene Blue Growth Inhibition Assay, HFF; format: cell-based; details: 3 days, read-out: MeB Cell Line IC50
Procedure: as §1, §2, §3

[4] = system: MCF7 breast tumor cell line; experiment: Methylene Blue Growth Inhibition Assay, MCF7; format: cell-based, human; details: MCF7, 3 days, read-out: MeB Cell Line IC50
Procedure: as §1, §2, §3

[5] = system: PC3 prostate tumor cell line; experiment: Methylene Blue Growth Inhibition Assay, PC3; format: cell-based, human; details: PC3, 3 days, read-out: MeB Cell Line IC50
Procedure: as §1, §2, §3

[6] = system: RKO colon tumor cell line; experiment: Methylene Blue Growth Inhibition Assay, RKO; format: cell-based, human; details: 3 days, read-out: MeB Cell Line IC50
Procedure: as §1, §2, §3

Molecule: 2-(6-Methoxy-1H-benzimidazol-1-yl)-4-({[2-(trifluoromethyl)phenyl]methyl}oxy)-1,3-thiazole-5-carboxamide and 2-(5-methoxy-1H-benzimidazol-1-yl)-4-({[2-(trifluoromethyl)phenyl]methyl}oxy)-1,3-thiazole-5-carboxamide [Example 3]
- Average pIC50 PLK Enzyme Inhibition (PLK1 kinase domain): +++ (+++=pIC50>7)
- IC50 [1]: > 10 µM
- IC50 [2]: > 10 µM
- IC50 [3]: > 10 µM
- IC50 [4]: > 10 µM
- IC50 [5]: > 10 µM
- IC50 [6]: > 10 µM

Molecule: NC(=O)c1sc(-n2cnc3ccc(F)cc32)nc1OCc1ccccc1C(F)(F)F [Example 4, 2-(6-Fluoro-1H-benzimidazol-1-yl)-4-({[2-(trifluoromethyl)phenyl]methyl}oxy)-1,3-thiazole-5-carboxamide]
- IC50 (PLK1 kinase domain): 0.1 to 10 µM
- IC50 ([1]; Homo sapiens, NCI-H460, 72 h): > 10 µM
- IC50 ([2]; Homo sapiens, HCT-116, 72 h): > 10 µM
- IC50 ([3]; Homo sapiens, 72 h): > 10 µM
- IC50 ([4]; Homo sapiens, 72 h): > 10 µM
- IC50 ([5]; Homo sapiens, 72 h): > 10 µM
- IC50 ([6]; Homo sapiens, 72 h): > 10 µM

Molecule: Cc1cc2ncn(-c3nc(OCc4ccccc4C(F)(F)F)c(C(N)=O)s3)c2cc1C [Example 5, 2-(5,6-Dimethyl-1H-benzimidazol-1-yl)-4-({[2-(trifluoromethyl)phenyl]methyl}oxy)-1,3-thiazole-5-carboxamide]
- IC50 (PLK1 kinase domain): 0.1 to 10 µM
- IC50 ([1]; Homo sapiens, NCI-H460, 72 h): > 10 µM
- IC50 ([2]; Homo sapiens, HCT-116, 72 h): > 10 µM
- IC50 ([3]; Homo sapiens, 72 h): > 10 µM
- IC50 ([4]; Homo sapiens, 72 h): > 10 µM
- IC50 ([5]; Homo sapiens, 72 h): > 10 µM
- IC50 ([6]; Homo sapiens, 72 h): > 10 µM

Molecule: NC(=O)c1sc(-n2cnc3ccccc32)nc1OCc1ccccc1C(F)(F)F [Example 1, 2-(1H-Benzimidazol-1-yl)-4-({[2-(trifluoromethyl)phenyl]methyl}-oxy)-1,3-thiazole-5-carboxamide]
- IC50 (PLK1 kinase domain): < 0.1 µM
- IC50 ([1]; Homo sapiens, NCI-H460, 72 h): > 10 µM
- IC50 ([2]; Homo sapiens, HCT-116, 72 h): > 10 µM
- IC50 ([3]; Homo sapiens, 72 h): > 10 µM
- IC50 ([4]; Homo sapiens, 72 h): > 10 µM
- IC50 ([5]; Homo sapiens, 72 h): > 10 µM
- IC50 ([6]; Homo sapiens, 72 h): > 10 µM

Molecule: COc1cc2ncn(-c3nc(OCc4ccccc4C(F)(F)F)c(C(N)=O)s3)c2cc1OC [Example 6, 2-[5,6-Bis(methyloxy)-1H-benzimidazol-1-yl]-4-({[2-(trifluoromethyl)phenyl]-methyl}oxy)-1,3-thiazole-5-carboxamide]
- IC50 (PLK1 kinase domain): < 0.1 µM
- IC50 ([1]; Homo sapiens, NCI-H460, 72 h): 1 to 10 µM
- IC50 ([2]; Homo sapiens, HCT-116, 72 h): 1 to 10 µM
- IC50 ([3]; Homo sapiens, 72 h): > 10 µM
- IC50 ([4]; Homo sapiens, 72 h): 1 to 10 µM
- IC50 ([5]; Homo sapiens, 72 h): 1 to 10 µM
- IC50 ([6]; Homo sapiens, 72 h): 1 to 10 µM

Further lines, with some results ahead:

- IC50 (PLK1 kinase domain): < 0.1 µM
- IC50 ([1]; Homo sapiens, NCI-H460, 72 h): > 10 µM
- IC50 ([2]; Homo sapiens, HCT-116, 72 h): > 10 µM
- IC50 ([4]; Homo sapiens, 72 h): 1 to 10 µM
- IC50 ([5]; Homo sapiens, 72 h): > 10 µM
- IC50 ([6]; Homo sapiens, 72 h): 1 to 10 µM
Molecule: NC(=O)c1sc(-n2cnc3ccc(Cl)cc32)nc1OCc1ccccc1C(F)(F)F [Example 2A, 2-(6-Chloro-1H-benzimidazol-1-yl)-4-({[2-(trifluoromethyl)phenyl]methyl}oxy)-1,3-thiazole-5-carboxamide]
- IC50 ([3]; Homo sapiens, 72 h): > 10 µM

- IC50 (PLK1 kinase domain): 0.1 to 10 µM
- IC50 ([1]; Homo sapiens, NCI-H460, 72 h): > 10 µM
- IC50 ([2]; Homo sapiens, HCT-116, 72 h): > 10 µM
- IC50 ([4]; Homo sapiens, 72 h): > 10 µM
- IC50 ([5]; Homo sapiens, 72 h): > 10 µM
- IC50 ([6]; Homo sapiens, 72 h): > 10 µM
Molecule: NC(=O)c1sc(-n2cnc3cc(Cl)ccc32)nc1OCc1ccccc1C(F)(F)F [Example 2B, 2-(5-chloro-1H-benzimidazol-1-yl)-4-({[2-(trifluoromethyl)phenyl]methyl}oxy)-1,3-thiazole-5-carboxamide]
- IC50 ([3]; Homo sapiens, 72 h): > 10 µM

Source: patent US7560568B2, “Thiazole compounds” (SmithKline Beecham Corporation, priority 2004, dated 2009)
